The assay concerns the target T1, hKv7.2 and hKv7.3 (Kv7.2/7.3) (Homo sapiens, UniProt O43525+O43526).
T1 construct: host or cells: HEK293
The experiment in a line: Modulation of Kv7.2/7.3 conductance, automated electrophysiology (IonWorks Barracuda, population patch clamp) in HEK293 cells. The assay is classed as cell-based. The arrangement: Voltage Shift ([…]V0.5), Mean: unit not given here. The protocol: Modulation of Kv7.2/7.3 Conductance by Kv7 Potentiators in a Mammalian Expression System
The potency and efficacy of Kv7 potentiators is assessed by automated electrophysiology on the IonWorks Barracuda (Molecular Devices) platform using the population patch clamp mode of the instrument.
Cell Culture: HEK293 cells stably expressing hKv7.2 (under tetracycline induction) and hKv7.3 (Catalog #CT6147, Charles River) are used for these studies. Cells are maintained in a Dulbecco's modified Eagle's medium/nutrient mixture Ham's F-12 (Sigma-Aldrich) supplemented with 5% tetracycline-screened fetal bovine serum (Sigma-Aldrich), 15 mM HEPES, 500 μg/mL G418, 100 U/mL penicillin, 100 μg/mL streptomycin, […] L-glutamine, 100 μg/mL zeocin, and 5 μg/mL blasticidin. Expression of hKv7.2 is induced by addition of 1 μg/mL doxycycline 24 h prior to recordings.
Cells are cultured in Corning T-150 flasks to a confluence of 85%-95%. At the start of an experiment, cells are washed once with D-PBS without calcium and magnesium and then dissociated by incubating in 3 ml of 0.25% trypsin for 8 min at 37° C. Cells ware resuspended in media, triturated gently, and centrifuged for 4 min at 1,000 rpm. Cells are resuspended in external solution to a final concentration of 2.5-3.5M cells/mL.
Solutions: External solution w is composed of (in mM): 140 NaCl, 5 KCl, 2 CaCl2, 1 MgCl2, 10 HEPES, 10 Glucose, pH 7.4. Internal solution is composed of (in mM): 90 K-gluconate, 40 KCl, 3.2 EGTA, 3.2 MgCl2, 5 HEPES, pH 7.25. The membrane perforating agent amphotericin B is prepared daily as a 27 mg/mL stock solution in DMSO and then added to the internal solution to a final concentration of 0.1 mg/mL. Test article dilutions are prepared in 384-well plates from 10 mM DMSO stock solutions and diluted using acoustic dispensing (Labcyte ECHO®), such that final DMSO concentrations are 0.1%.
Electrophysiological Recordings: Resuspended cells are placed on the IONWORKS® BARRACUDA™ (IWB) instrument, external solution is added to a 384-well patch plate, and a hole test is performed to determine blocked wells and offset voltages. Cells are then added to the patch plate (9 μL per well) by the instrument. Two seal tests are performed prior to introducing the perforating agent amphotericin in the internal solution and allowing approximately 8 min to obtain electrical access, which is verified by a third seal test. The command voltage protocol consists of a family of 1 sec voltages steps from −80 mV to +40 mV from a holding potential of −80 mV and is applied prior to (baseline) and 6 min after test article addition.
Data Analysis: Data are acquired and leak subtracted using IWB software. Current amplitudes during the last 10 msec of each voltage step are averaged and exported. Further analysis is performed using Microsoft Excel and GraphPad Prism. Current amplitude is converted to conductance (G) by the following formula: G=I/(V−Ek) where I=current, V=step potential, Ek=potassium reversal potential (−84 mV). Conductance in the presence of test article is normalized to the baseline conductance at +40 mV for the same well. Conductance-voltage (G−V) curves are fitted with the Boltzmann equation y=Bottom+(Top−Bottom)/(1+EXP((Vm−V0.5/k)).
Fitting a 4-parameter logistic equation to the data may be used to determine the potency (EC50) and efficacy (maximal shift) for each test compound.
In general terms: In patch-clamp work, channel activity is measured electrically.

The mark [1] stands for this setting: 4-parameter logistic fit of voltage shift data.

For the molecule `CC(C)(C)[C@H](O)CNC(=O)NCc1ccnc(OCC(F)(F)F)c1` [Example 1, 1-[(2S)-2-hydroxy-3,3-dimethyl-butyl]-3-[[2-(2,2,2-trifluoroethoxy)-4-pyridyl]methyl]urea], the “Voltage Shift ([…]V0.5), Mean” value (0.0005 μM) stood at 2.6; the “Voltage Shift ([…]V0.5), Mean” value (0.0015 μM) was found to be 2.0; the “Voltage Shift ([…]V0.5), Mean” value (0.005 μM) stood at 3.0; the “Voltage Shift ([…]V0.5), Mean” value (0.01 μM) was 1.6; the “Voltage Shift ([…]V0.5), Mean” value (0.04 μM) is 1.3; the “Voltage Shift ([…]V0.5), Mean” value (0.12 μM) amounted to 0.0. The “Voltage Shift ([…]V0.5), Mean” value is −3.5 (0.37 μM); −13.2 (1.11 μM); −28.0 (3.33 μM); −38.0 (10 μM, difference from control in voltage at half-maximal conductance). For the same molecule, under setting [1], the “Maximal Shift (efficacy)” value is reported as −44. Moreover, under setting [1], the Slope is given as 1.2. In addition, where the note is “4-parameter logistic fit of voltage shift data, read-out: EC50 (potency of V0.5 shift)”, the EC50 is 2 µM.

These data come from patent US12344584B2, “KCNQ potentiators” (Eli Lilly and Company, priority 2019, dated 2025).
